Test results from the NIST ThermoML archive (doi:10.1021/je700287u).

Assay: xn = mol fraction of the nth substance listed
Conditions: Liquid

CN(CCO)CCO [N-methyldiethanolamine] + O
Conditions | mass density [kg/m3]
323.09 K, 3015 kPa, x1 = 0.1302 | 1027.4
323.09 K, 3997 kPa, x1 = 0.0369 | 1002.4
323.09 K, 4003 kPa, x1 = 0.1302 | 1027.8
323.09 K, 4998 kPa, x1 = 0.0369 | 1002.7
323.09 K, 4999 kPa, x1 = 0.1302 | 1028.1
323.09 K, 5998 kPa, x1 = 0.1302 | 1028.5
323.09 K, 6003 kPa, x1 = 0.0369 | 1003.1
323.09 K, 6993 kPa, x1 = 0.0369 | 1003.5
323.09 K, 6998 kPa, x1 = 0.1302 | 1028.9
323.09 K, 7994 kPa, x1 = 0.0369 | 1004
323.09 K, 7999 kPa, x1 = 0.1302 | 1029.3
323.09 K, 8996 kPa, x1 = 0.0369 | 1004.4
323.09 K, 8998 kPa, x1 = 0.1302 | 1029.7
323.09 K, 9995 kPa, x1 = 0.1302 | 1030.1
323.09 K, 9997 kPa, x1 = 0.0369 | 1004.8
323.09 K, 10986 kPa, x1 = 0.0369 | 1005.2
323.09 K, 10997 kPa, x1 = 0.1302 | 1030.4
323.09 K, 11988 kPa, x1 = 0.0369 | 1005.6
323.09 K, 11998 kPa, x1 = 0.1302 | 1030.8
323.09 K, 12997 kPa, x1 = 0.0369 | 1006
323.09 K, 13005 kPa, x1 = 0.1302 | 1031.2
323.09 K, 13999 kPa, x1 = 0.0369 | 1006.4
323.09 K, 14003 kPa, x1 = 0.1302 | 1031.6
323.09 K, 14989 kPa, x1 = 0.0369 | 1006.8
323.09 K, 14990 kPa, x1 = 0.1302 | 1032
323.09 K, 15996 kPa, x1 = 0.1302 | 1032.3
323.09 K, 16002 kPa, x1 = 0.0369 | 1007.1
323.09 K, 16988 kPa, x1 = 0.0369 | 1007.6
323.09 K, 16999 kPa, x1 = 0.1302 | 1032.7
323.09 K, 17990 kPa, x1 = 0.0369 | 1007.9
323.09 K, 17996 kPa, x1 = 0.1302 | 1033.1
323.09 K, 18988 kPa, x1 = 0.1302 | 1033.4
323.09 K, 18996 kPa, x1 = 0.0369 | 1008.3
323.09 K, 19995 kPa, x1 = 0.0369 | 1008.7
323.09 K, 20004 kPa, x1 = 0.1302 | 1033.8
323.1 K, 1009 kPa, x1 = 0.0893 | 1019.6
323.1 K, 2006 kPa, x1 = 0.0893 | 1020
323.1 K, 3012 kPa, x1 = 0.0893 | 1020.4
323.1 K, 4011 kPa, x1 = 0.0893 | 1020.8
323.1 K, 5002 kPa, x1 = 0.0893 | 1021.2
323.1 K, 5996 kPa, x1 = 0.0893 | 1021.6
323.1 K, 7006 kPa, x1 = 0.0893 | 1022
323.1 K, 8004 kPa, x1 = 0.0893 | 1022.3
323.1 K, 8991 kPa, x1 = 0.0893 | 1022.7
323.1 K, 9999 kPa, x1 = 0.0893 | 1023.1
323.1 K, 10993 kPa, x1 = 0.0893 | 1023.5
323.1 K, 11992 kPa, x1 = 0.0893 | 1023.8
323.1 K, 13001 kPa, x1 = 0.0893 | 1024.2
323.1 K, 13990 kPa, x1 = 0.0893 | 1024.6
323.1 K, 14980 kPa, x1 = 0.0893 | 1025
323.1 K, 16002 kPa, x1 = 0.0893 | 1025.3
323.1 K, 16990 kPa, x1 = 0.0893 | 1025.7
323.1 K, 17994 kPa, x1 = 0.0893 | 1026.1
323.1 K, 18999 kPa, x1 = 0.0893 | 1026.5
323.1 K, 20002 kPa, x1 = 0.0893 | 1026.8
333.03 K, 1009 kPa, x1 = 0.1302 | 1019.4
333.03 K, 1015 kPa, x1 = 0.0607 | 1006.4
333.03 K, 1998 kPa, x1 = 0.0607 | 1006.8
333.03 K, 2002 kPa, x1 = 0.1302 | 1019.8
333.03 K, 2997 kPa, x1 = 0.1302 | 1020.2
333.03 K, 3013 kPa, x1 = 0.0607 | 1007.2
333.03 K, 3993 kPa, x1 = 0.1302 | 1020.6
333.03 K, 4037 kPa, x1 = 0.0607 | 1007.6
333.03 K, 4997 kPa, x1 = 0.1302 | 1021
333.03 K, 5116 kPa, x1 = 0.0607 | 1008.1
333.03 K, 6002 kPa, x1 = 0.1302 | 1021.4
333.03 K, 6004 kPa, x1 = 0.0607 | 1008.4
333.03 K, 6992 kPa, x1 = 0.0607 | 1008.8
333.03 K, 6992 kPa, x1 = 0.1302 | 1021.8
333.03 K, 8003 kPa, x1 = 0.0607 | 1009.1
333.03 K, 8013 kPa, x1 = 0.1302 | 1022.2
333.03 K, 8975 kPa, x1 = 0.0607 | 1009.6
333.03 K, 9016 kPa, x1 = 0.1302 | 1022.6
333.03 K, 9983 kPa, x1 = 0.0607 | 1009.9
333.03 K, 9993 kPa, x1 = 0.1302 | 1023
333.03 K, 10989 kPa, x1 = 0.1302 | 1023.4
333.03 K, 11029 kPa, x1 = 0.0607 | 1010.4
333.03 K, 12007 kPa, x1 = 0.1302 | 1023.8
333.03 K, 12015 kPa, x1 = 0.0607 | 1010.7
333.03 K, 13003 kPa, x1 = 0.1302 | 1024.1
333.03 K, 13028 kPa, x1 = 0.0607 | 1011.1
333.03 K, 13995 kPa, x1 = 0.1302 | 1024.5
333.03 K, 14020 kPa, x1 = 0.0607 | 1011.5
333.03 K, 15011 kPa, x1 = 0.1302 | 1024.9
333.03 K, 15022 kPa, x1 = 0.0607 | 1011.9
333.03 K, 15996 kPa, x1 = 0.1302 | 1025.3
333.03 K, 16006 kPa, x1 = 0.0607 | 1012.3
333.03 K, 16996 kPa, x1 = 0.0607 | 1012.7
333.03 K, 17011 kPa, x1 = 0.1302 | 1025.7
333.03 K, 17985 kPa, x1 = 0.1302 | 1026.1
333.03 K, 18013 kPa, x1 = 0.0607 | 1013.1
333.03 K, 18991 kPa, x1 = 0.1302 | 1026.4
333.03 K, 19018 kPa, x1 = 0.0607 | 1013.4
333.03 K, 19965 kPa, x1 = 0.0607 | 1013.8
333.03 K, 19993 kPa, x1 = 0.1302 | 1026.8
333.04 K, 1012 kPa, x1 = 0.0369 | 995.9
333.04 K, 1999 kPa, x1 = 0.0369 | 996.3
333.04 K, 2995 kPa, x1 = 0.0369 | 996.7
333.04 K, 4008 kPa, x1 = 0.0369 | 997.2
333.04 K, 4992 kPa, x1 = 0.0369 | 997.6
333.04 K, 5983 kPa, x1 = 0.0369 | 998
333.04 K, 6994 kPa, x1 = 0.0369 | 998.4
333.04 K, 7997 kPa, x1 = 0.0369 | 998.8
333.04 K, 8994 kPa, x1 = 0.0369 | 999.2
333.04 K, 9994 kPa, x1 = 0.0369 | 999.6
